Experimental data reported in US20090233960A1, “Kinase Inhibitors” (Devgen NV, priority 2005, published 2009).
“Also recorded” adds a separate entry of the source.

Biological target: T1, human ROCKI/ROCKII mix (Homo sapiens, UniProt O75116)
T1 construct: purchased Upstate Biotechnology 14451
Assay: ROCK inhibition, fluorescence polarization (FP) IMAP assay
Format: biochemical
Details: 10 μM ATP
Procedure: The compounds of the invention were tested for inhibition of human ROCKI/ROCKII mix.
The inhibition assays were performed with a fluorescence polarization (FP) assay using the commercially available ROCK IMAP Kit from Molecular Devices (Product ID. No. R8093) essentially in accordance with the protocol supplied by the manufacturer. The S6 ribosomal protein-derived substrate used was (Fl)-[…], also obtained from Molecular Devices (Product ID No. R7184). The enzyme mix ROCKI/ROCKII was obtained from Upstate Biotechnology (Product ID No 14451).
In summary, all compounds were screened in the wells of a 384 well plate for enzymatic inhibition with concentrations varying from 100 μM to 0.3 nM using a stepwise three (or two)-fold dilution.
To perform the assay, 1 μl of a solution of the compound to be tested in DMSO (at each concentration) was added to 2 μl of a solution of the enzyme in 10 mM Tris-HCl, 10 mM MgCl2, 0.1% BSA, 0.05% NaN3, pH 7,2. The final concentration of the enzyme was 2.6 nM.
After incubating for 30 minutes at room temperature, 2 μl of a mixture of ATP and the protein substrate in 10 mM Tris-HCl, 10 mM MgCl2, 0.1% BSA, 0.05% NaN3, pH 7.2 was added. The final concentration of the ATP was 10 μM and final concentration of protein substrate was 0.2 μM.
After incubating for 60 minutes at room temperature, 12 μl of the IMAP Binding Solution (mix of the IMAP Binding Buffer A (1×) and the IMAP Binding Reagent (from the ROCK IMAP kit)) was added.
The mixture thus obtained (total volume: 17 μl) was incubated for 60 minutes at room temperature, upon which the fluorescence polarization was measured using an automated plate reader (Perkin Elmer, Model Envision 2100-0010 HTS) with FP filters: excitation filter FITC FP 480 and emission filters FITC FP P-pol 535 and FITC FP S-pol 535 (Perkin-Elmer). The results were fitted to a curve using the XL-Fit algorithm and IC50 values were calculated for each fitted curve, again using the XL-Fit algorithm.

T1 sequence (O75116 11-552 limits assumed): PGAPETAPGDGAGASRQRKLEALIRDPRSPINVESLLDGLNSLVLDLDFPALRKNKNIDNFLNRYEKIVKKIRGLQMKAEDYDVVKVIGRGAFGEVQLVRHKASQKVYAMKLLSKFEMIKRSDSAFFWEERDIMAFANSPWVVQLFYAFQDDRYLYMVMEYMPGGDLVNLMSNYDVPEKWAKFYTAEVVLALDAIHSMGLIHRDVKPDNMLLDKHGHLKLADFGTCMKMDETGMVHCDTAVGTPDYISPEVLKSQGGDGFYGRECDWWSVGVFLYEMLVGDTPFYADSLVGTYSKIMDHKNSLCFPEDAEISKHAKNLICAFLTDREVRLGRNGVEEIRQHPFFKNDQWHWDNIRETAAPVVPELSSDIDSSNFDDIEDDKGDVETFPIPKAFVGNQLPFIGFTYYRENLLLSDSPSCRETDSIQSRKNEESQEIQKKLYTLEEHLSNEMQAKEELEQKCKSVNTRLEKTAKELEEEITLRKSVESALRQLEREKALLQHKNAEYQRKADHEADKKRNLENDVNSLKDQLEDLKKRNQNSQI

SMILES | IC50
CC(N)c1ccc(C(=O)Nc2ccncc2)cc1O (stereo not drawn) [Compound 1, 4-(1-amino-ethyl)-3-hydroxy-N-pyridin-4-yl-benzamide] | 500 to 5000 nM
CC(N)c1ccc(C(=O)Nc2ccncc2)cc1[N+](=O)[O-] (stereo not drawn) [Compound 2, 4-(1-amino-ethyl)-3-nitro-N-pyridin-4-yl-benzamide] | 50 to 500 nM
CC(N)c1ccc(C(=O)Nc2ccncc2)cc1N (stereo not drawn) [Compound 3, 3-amino-4-(1-amino-ethyl)-N-pyridin-4-yl-benzamide] | 500 to 5000 nM
CC(N)c1ccc(C(=O)Nc2ccncc2)cc1-c1ccc(Cl)cc1 (stereo not drawn) [Compound 4, 6-(1-amino-ethyl)-4′-chloro-biphenyl-3-carboxylic acid pyridin-4-ylamide] | < 50 nM
CC(N)c1ccc(C(=O)Nc2ccncc2)cc1-c1cccs1 (stereo not drawn) [Compound 5, 4-(1-amino-ethyl)-N-pyridin-4-yl-3-thiophen-2-yl-benzamide] | < 50 nM
COc1ccc(-c2cc(C(=O)Nc3ccncc3)ccc2C(C)N)cc1 (stereo not drawn) [Compound 6, 6-(1-amino-ethyl)-4′-methoxy-biphenyl-3-carboxylic acid pyridin-4-ylamide] | 50 to 500 nM
CC(N)c1ccc(C(=O)Nc2ccncc2)cc1-c1ccoc1 (stereo not drawn) [Compound 7, 4-(1-amino-ethyl)-3-furan-3-yl-N-pyridin-4-yl-benzamide] | 50 to 500 nM
CC(N)c1ccc(C(=O)Nc2ccncc2)cc1OCCO (stereo not drawn) [Compound 8, 4-(1-amino-ethyl)-3-(2-hydroxy-ethoxy)-N-pyridin-4-yl-benzamide] | 500 to 5000 nM
CC(N)c1ccc(C(=O)Nc2ccncc2)cc1OCCCO (stereo not drawn) [Compound 9, 4-(1-amino-ethyl)-3-(3-hydroxy-propoxy)-N-pyridin-4-yl-benzamide] | 500 to 5000 nM
CC(N)c1ccc(C(=O)Nc2ccncc2)cc1OCCN (stereo not drawn) [Compound 10, 3-(2-amino-ethoxy)-4-(1-amino-ethyl)-N-pyridin-4-yl-benzamide] | 500 to 5000 nM
CC(N)c1ccc(C(=O)Nc2ccncc2)cc1OCCCN (stereo not drawn) [Compound 11, 4-(1-amino-ethyl)-3-(3-amino-propoxy)-N-pyridin-4-yl-benzamide] | 500 to 5000 nM
CC(N)c1ccc(C(=O)Nc2ccncc2)cc1OCc1ccccc1 (stereo not drawn) [Compound 12, 4-(1-amino-ethyl)-3-benzyloxy-N-pyridin-4-yl-benzamide] | 50 to 500 nM
CC(N)c1ccc(C(=O)Nc2ccncc2)cc1NC(=S)Nc1ccccc1 (stereo not drawn) [Compound 13, 4-(1-amino-ethyl)-3-(3-phenyl-thioureido)-N-pyridin-4-yl-benzamide] | 50 to 500 nM
CC(N)c1ccc(C(=O)Nc2ccncc2)cc1NC(=O)Nc1ccccc1 (stereo not drawn) [Compound 14, 4-(1-amino-ethyl)-3-(3-phenyl-ureido)-N-pyridin-4-yl-benzamide] | 50 to 500 nM
CC(N)c1ccc(C(=O)Nc2ccncc2)cc1NCc1ccco1 (stereo not drawn) [Compound 16, 4-(1-amino-ethyl)-3-[(furan-2-ylmethyl)-amino]-N-pyridin-4-yl-benzamide] | 50 to 500 nM
CC(N)c1ccc(C(=O)Nc2ccncc2)cc1NC(=O)c1ccccc1 (stereo not drawn) [Compound 17, 4-(1-amino-ethyl)-3-benzoylamino-N-pyridin-4-yl-benzamide] | 50 to 500 nM
CC(N)c1ccc(C(=O)Nc2ccncc2)cc1NC(=O)c1ccco1 (stereo not drawn) [Compound 18, furan-2-carboxylic acid [2-(1-amino-ethyl)-5-(pyridin-4-ylcarbamoyl)-phenyl]-amide] | 50 to 500 nM
COc1cccc(C(=O)Nc2cc(C(=O)Nc3ccncc3)ccc2C(C)N)c1 (stereo not drawn) [Compound 19, 4-(1-amino-ethyl)-3-(3-methoxy-benzoylamino)-N-pyridin-4-yl-benzamide] | < 50 nM
CC(N)c1ccc(C(=O)Nc2ccncc2)cc1NC(=O)c1cccc(Cl)c1 (stereo not drawn) [Compound 20] | 50 to 500 nM
COc1ccc(C(=O)Nc2cc(C(=O)Nc3ccncc3)ccc2C(C)N)cc1 (stereo not drawn) [Compound 21, 4-(1-Amino-ethyl)-3-(4-methoxy-benzoylamino)-N-pyridin-4-yl-benzamide] | < 50 nM
CC(N)c1ccc(C(=O)Nc2ccncc2)cc1NC(=O)c1ccc(Cl)cc1 (stereo not drawn) [Compound 22, 4-(1-Amino-ethyl)-3-(4-chloro-benzoylamino)-N-pyridin-4-yl-benzamide] | 50 to 500 nM
CC(N)c1ccc(C(=O)Nc2ccncc2)cc1-c1cccc(Cl)c1 (stereo not drawn) [Compound 24, 6-(1-aminoethyl)-3′-chloro-N-pyridin-4-ylbiphenyl-3-carboxamide] | < 50 nM
CC(N)c1ccc(C(=O)Nc2ccncc2)cc1-c1ccc(F)cc1 (stereo not drawn) [Compound 26, 6-(1-aminoethyl)-4′-fluoro-N-pyridin-4-ylbiphenyl-3-carboxamide] | < 50 nM
CC(N)c1ccc(C(=O)Nc2ccncc2)cc1-c1ccc2ccccc2c1 (stereo not drawn) [Compound 32, 4-(1-aminoethyl)-3-(2-naphthyl)-N-pyridin-4-ylbenzamide] | < 50 nM
C[C@@H](N)c1ccc(C(=O)Nc2ccncc2)cc1-c1cccs1 [Compound 103, 4-((R)-1-Amino-ethyl)-N-pyridin-4-yl-3-thiophen-2-yl-benzamide] | < 50 nM
C[C@H](N)c1ccc(C(=O)Nc2ccncc2)cc1-c1cccs1 [Compound 104, 4-((S)-1-Amino-ethyl)-N-pyridin-4-yl-3-thiophen-2-yl-benzamide] | 50 to 500 nM

System: spontaneous hypertensive rats (SHRs)
Assay: Activity on hypertension in spontaneous hypertensive rats (SAP and heart rate)
Format: in vivo, rat
Details: SHR, 10 mg/kg, single oral dose
Procedure: The efficiency of compounds of the invention to reduce and/or treat hypertension in an acute model was evaluated using spontaneous hypertensive rats (SHRs).
Compounds were administered as one single dose to SHR. Systolic arterial pressure (SAP) and heart rate were recorded before (−1 hr) and 1, 3, 5, 7, and 24 hours after oral administration of vehicle or test compound.
A reduction in SAP by 10 percent or more (>10%), or a decrease in heart rate by 20 percent or more (>20%), relative to baseline was considered significant.

SMILES | hypotensive response (systolic arterial pressure)
C[C@@H](N)[C@H]1CC[C@H](C(=O)Nc2ccncc2)CC1 [Compound Y-27632] | not significant; also recorded: completely inactive
